According to patent US9723843B2, “Family of silver (I) periodate compounds having broad microbial properties” (Innovotech, Inc., priority 2011, dated 2017):
Where two headings read alike, the source gives them in different places.

Columns and labels:
[1] = Experimental: The purpose of this study was to develop a basic understanding of the solubility (and stability) of Ag5IO6 in pure water and 0.9% (physiological saline), following OECD Method (105)—flask.
• 1. About 0.1 g Ag5IO6 was weighed into 6 100 mL volumetric flasks. • 2. The flasks were filled to volume with ddH2O or 0.9% saline. • 3. The vessels were tightly stoppered and then agitated using a shaker in an incubator at 30° C. for approximately 24 hours. • 4. After 24 hours, two of the vessels (one per solvent) were equilibrated for 24 h at the test temperature (20° C., using a water bath) with occasional shaking. • 5. Pictures were obtained of the solutions and solid present. • 6. The contents of the vessels were then centrifuged at the test temperature (20° C.). • 7. The concentration of the test substance in the clear aqueous phase was determined by atomic absorption spectroscopy. • 8. The pH of the solution was measured using a pH meter. • 9. Triplicate samples of the solution were analyzed by UV-Vis spectroscopy. • 10. A sample of the solid material was collected by vacuum filtration, allowed to dry on the filter for 15 minutes, then transferred to a watch glass and placed in the fume hood to dry overnight. The sample was then packaged in a glass vial covered in aluminum foil and submitted for XRD analysis. • 11. The procedures of steps 4-10 were repeated for the second and third flask, after an initial equilibration at 30° C. for two and three days, respectively. Results

[2] = greater than 1.3 million lux hours exposure
Excerpt: The purpose of this study was to assess the photostability of Ag5IO6 in accordance with the FDA's 1997 recommendations regarding the photostability testing of new products.
The samples were then submitted for XRD.

[3] = room temperature
Experimental: The purpose of this study was to determine whether or not Ag5IO6 interacts with methanol, tetrahydrofuran, acetone, and acetonitrile.
• i. […] of Ag5IO6 was placed in a vial, 2 mL of the solvent was added, and the vial was placed in a TAM III for an isothermal run at room temperature for >24 h with solvent only as the reference. The heat flow was measured. • ii. After the run was complete, the solvents were allowed to flash off and the solids collected were submitted to XRD. • iii. Samples exposed following essentially the same method for only 18 h were also submitted for XRD.

[4] = remark: listed apart in the source
Experimental: The purpose of this study was to determine the stability of Ag5IO6 at various temperatures independent of hydrolytic or photolytic effects, in order to obtain an understanding of its storage stability, and also to perform differential scanning calorimetry and thermal gravimetry.
• i. Ag5IO6 was made fresh, a sample was submitted for XRD analysis (Day 0), and then additional samples were placed at room temperature, 40° C., 54° C., and 90° C. for 14 and 28 days in amber glass vials placed in CO2 impermeable foil pouches with desiccant packs. After the allotted time period, the samples were submitted for XRD. • Samples were submitted for DSC/TGA to measure thermal stability.

For `[Ag+].[Ag+].[Ag+].[Ag+].[Ag+].[O-][I+]([O-])([O-])([O-])([O-])[O-]` [Ag5IO6, pentasilver hexaoxoiodate], the solubility in saline ([1]; 0.9% saline, 20° C., calculated assuming that all Ag in solution is due to Ag5IO6) was 0.61 ± 0.05 mg/L, the “solubility in ddH2O” value ([1]; ddH2O, 20° C., calculated assuming that all Ag in solution is due to Ag5IO6) was 24.41 ± 0.87 mg/L and the “solid material converted to Ag metal (XRD)” value ([1]; in ddH2O) was 0.1%. The “solid material remained as Ag5IO6 (XRD)” value ([1]; in ddH2O) was “approximately 99.9%”, the “solid material converted to AgCl (XRD)” value ([1]; in saline, solid collected at the end of the experiment) was “approximately 25%” and the pH in saline ([1]; solution over Ag5IO6 in 0.9% saline) was 10. For the same molecule, the “pH in ddH2O” value ([1]; solution over Ag5IO6 in ddH2O) was 8, the “composition after light exposure (XRD)” value [2] was 100 % Ag5IO6 and the “onset of significant reaction” value ([3]; THF) was ~56 h. For the same molecule, the “onset of significant reaction” value ([3]; acetonitrile (slower onset)) was ~56 h, the “time blended with solvents without substantial reaction” value ([3]; all solvents (methanol, tetrahydrofuran, acetone, acetonitrile)) was < 18 h and the “onset of significant reaction” value ([3]; methanol) was ~33 h. For the same molecule, the “composition after storage (XRD)” value ([4]; 90° C., 14 and 28 days) was 100 % Ag5IO6, the grain size ([4]; 90° C., Day 14) was 62 Å and the grain size ([4]; 90° C., Day 28) was 94 Å. The grain size ([4]; Day 0) was 14 Å, the “temperature up to which stable” value ([4]; powder) was > 400 °C and the “time stable at 90° C.” value ([4]; powder, 90° C.) was > 28 days. For the same molecule, the “temperature up to which stable” value ([4]; powder, listed as Ag5IO6 powder) was “up to 440 °C” and the “shelf life at room temperature” value ([4]; suggested by stability at 54° C. for 28 days) was > 2 years.
